15 compounds from patent US11958842B2, “Substituted phenazines and methods of treating cancer and bacterial diseases” (Adjutec Pharma AS, priority 2016, dated 2024) can be followed below.

Like-named read-outs stand apart in the source and are kept apart here.

One data set concerns Molm13 cells. As to the kind of experiment: Anti-AML activity, WST-1 viability (Example 72). Type of data set: cell-based. The following applies: Homo sapiens. The procedure:
Dry powder of analogs were dissolved in DMSO. IPC-18 rat AML cells (Lacaze, N. et al. Leuk. Res. 1983, 7, 145.) were cultured in DMEM medium (Sigma-Aldrich, St. Louis, Mo., USA) supplemented with 10% horse serum (Invitrogen, Carlsbad, Calif., USA), and antibiotics (50 U/mL of penicillin and 0.05 mg/mL streptomycin). Molm13 (Matsuo, Y. et al. Leukemia 1997, 11, 1469.) cells were cultured in RPMI supplemented with antibiotics (50 U/mL of penicillin and 0.05 mg/mL streptomycin) and 10% fetal bovine serum (FBS, Invitrogen, Carlsbad, Calif.) and kept in exponential growth before the experiments. Dilution series of iodinin analogs were added to medium and cell suspension added to reach a final cell concentration of 150 000 cells/ml in 0.1 mL in a 96 well tissue culture plate. […] The cells were incubated with the iodinin analogs for 22 h before WST-1 was added according to the manufacturers protocol, and the cells incubated further in 2 h. Mitochondrial conversion of WST-1 to its colored metabolite was measured by a plate reader at 450 nm, with 620 nm as the reference wavelength. The cells were next fixed by adding 4% buffered formaldehyde (PBS, pH 7.4, supplemented with 0.01 mg/mL Hoechst 33342 for nuclear visualization) to the cell suspension at 1:1 (v/v) ratio (final concentration of formaldehyde:[…]). The cells' nuclear and surface morphology were examined microscopically and results compared with the WST-1 viability assay. The results given in Table I are based on WST-1 data.

The nature of data set [1]: Parallel artificial membrane permeability assay (PAMPA). Particulars: for LogPeff: PAMPA; for Permeability: PAMPA class by ranges of Bennion et al. The protocol:
The Corning Gentest™ pre-Coated parallel artificial membrane permeability assay PAMPA Plate System was from Cording Discovery Labware (Bedford, USA). The compounds were tested in room temperature at 50 μM using PBS as buffer. A total of 300 μl of the compound solution was added to each well of the donor plate, and 200 μl of PBS was added to the receiver filter plate. After incubation for five hours, 50 μl of the donor or acceptor well were injected into a reversed phase HPLC column (Kromasil 100-5 C18 150-4.6 mm, Akzo Nobel, Sweden) connected to a Merck-Hitachi LaChrome HPLC-system (VWR, WestChester, USA) with a L-7455 diode array detector. Mobile phase A was 0.05% aqueous TFA, and mobile phase B was acetonitrile. The flow rate was 1.6 ml/min and compounds eluted between 1 and 4.5 minutes was eluted during a 6.5 min gradient from 90:10% mobile phase A:B to 0:100% mobile phase A:B. The ratio of the compound concentrations in the donor and acceptor compartment was calculated after integration of the peaks at 285 nm. Peff was calculated as described in [Bennion B J, Be N A, McNerney M W, Lao V, Carlson E M, Valdez C A, et al. Predicting a Drug's Membrane Permeability: A Computational Model Validated With in Vitro Permeability Assay Data. The journal of physical chemistry B. 2017; 121(20):5228-37.]. Membrane permeability were classified by the range defined by Bennion et al., allowing for us to divide the compounds into four groups, compounds with high permeability (LogPeff>−5.33), intermediate permeability (LogPeff>−5.66 and <−5.33), low permeability (LogPeff>−6.14 and <−5.66) impermeable (LogPeff<−6.14).

In data set [2] the test system is rat cardiomyoblast (H9c2) cells. The experiment in a line: Cytotoxicity, WST-1 and nuclear morphology (Example 73). Type of data set: cell-based. Particulars: H9c2, 19% O2, 24 hours of incubation, read-out: EC50 (μM) H9c2 19% O2. The procedure: (§1) All cell culturing media and serum were from Sigma-Aldrich (St. Louis, Mo., USA). Product Nos. are given in parentheses. The human acute myeloid leukemia cell line MOLM-13 was cultured in RPMI medium (R5886) enriched with […] (F7524) and 0.2 mM L-glutamine (G7513). The normal rat kidney epithelial (NRK) and the rat cardiomyoblast (H9c2) cells were cultured in DMEM medium (D6429) enriched with 10% fetal bovine serum (F7524). All cell lines were additionally supplemented with 100 IU/mL penicillin and […] (P0781). The cells were cultured in a humidified atmosphere either under 2% or 20% O2 at 37° C.
(§2) All analogues were dissolved in DMSO (D5879, Sigma-Aldrich) at concentrations between 2.5 and 20 mM before testing. For cytotoxic testing, the MOLM-13 cells were seeded as 20,000 cells/well, while NRK and H9c2 cells were seeded as 5,000 cells/well in 96-well Microplates (#167008, Thermo Scientific™ Nunc™ MicroWell™) with 100 μL medium/well. The cells were exposed to various concentrations of iodinin or its analogues for 24 hrs before the cell proliferation reagent WST-1 was used to assess the viability, in accordance with the manufacturer's instructions (11644807001, Roche Diagnostics, Sigma-Aldrich). The cells were next fixed in 2% buffered formaldehyde (pH 7.4) with the DNA-specific dye Hoechst 33342 (Polysciences Inc.) and assessed for cell death by UV-microscopy based on nuclear morphology. The highest concentration of analogue corresponded to 1% of DMSO, which alone gave less than 7% cell death as judged by nuclear morphology.
(§3) EC50 values were determined by analyses of WST-1 signal results as well as microscopic evaluation of cell death by four-parameter regression analyses using the SigmaPlot software (Systat Software inc. San Jose, Calif.):
(§4) [formula] where Y is the response (WST-1 signal or percent apoptosis), min and max are minimum and maximum response, X is concentration of analogue, EC50 equals the point of inflection, i.e. the point that gives half of maximum response, and h is the Hill's slope of the curve. The two methods gave consistent response curves for each analogue. In the case of Tirapazamine, where its colour interfered with the WST-1 signal, only microscopic evaluation of Hoechst stained cells was used in order to calculate its EC50 values.

Data set [3] relates to human acute myeloid leukemia cell line MOLM-13. Described as above. Type of data set: cell-based. The procedure:
as §1, §2, §3, §4

Data set [4] has as its system normal rat kidney epithelial (NRK) cells. The description is as above. Type of data set: cell-based. The procedure: as §1, §2, §3, §4
Where [5] appears, read: MOLM-13, 24 h, read-out: Molm 13 IC50 20% O2.
The mark [6] stands for this setting: 50 μM in PBS, room temperature, five hours.
The mark [7] stands for this setting: MOLM-13, 2% O2, 24 hours of incubation, read-out: EC50 (μM) MOLM-13 2% O2.
Where [8] appears, read: MOLM-13, 19% O2, 24 hours of incubation, read-out: EC50 (μM) MOLM-13 19% O2.
The mark [9] stands for this setting: Rattus norvegicus, 24 h, read-out: EC50 (μM) NRK 2% O2, NRK, 2% O2, 24 hours of incubation.
[10] abbreviates: Rattus norvegicus, 24 h, read-out: EC50 (μM) NRK 19% O2, NRK, 19% O2, 24 hours of incubation.
Where [11] appears, read: Molm 13 cells, 20% O2, 24 h of incubation, WST-1, read-out: Molm 13 IC50 20% O2.
[12] abbreviates: Homo sapiens, MOLM-13, 2% O2, 24 hours of incubation, read-out: EC50 (μM) MOLM-13 2% O2.
The mark [13] stands for this setting: Homo sapiens, MOLM-13, 19% O2, 24 hours of incubation, read-out: EC50 (μM) MOLM-13 19% O2.
Setting [14] is: Molm 13 cells, 2% O2, 24 h of incubation, WST-1, read-out: Molm 13 IC50 2% O2.
The mark [15] stands for this setting: Rattus norvegicus, 2% O2, 24 hours of incubation, read-out: EC50 (μM) NRK 2% O2.
[16] abbreviates: Rattus norvegicus, 19% O2, 24 hours of incubation, read-out: EC50 (μM) NRK 19% O2.

Consider `O=C(Oc1cccc2c1[n+]([O-])c1cccc(OC(=O)N3CCCC3)c1[n+]2[O-])N1CCCC1` [Example 16a, 1,6-bis((pyrrolidine-1-carbonyl)oxy)phenazine 5,10-dioxide], for which the IC50 in the data set on Molm13 cells (setting [5]) is 0.95 µM.

`Cc1cc2c(cc1C)[n+]([O-])c1c(OC(=O)N3CCCC3)cccc1[n+]2[O-]` [Example 52, 7,8-dimethyl-1-((pyrrolidine-1-carbonyl)oxy)phenazine 5,10-dioxide]: in data set [1] (setting [6]), the LogPeff is given as −5.32. In addition, the EC50 is 8.7 ± 1.2 µM in data set [2]; 0.78 ± 0.11 µM in data set [3] (setting [7]); 1.5 ± 0.02 µM in data set [3] (setting [8]); 8.9 µM in data set [4] (setting [9]); 6.6 ± 0.04 µM in data set [4] (setting [10]).

As for `[O-][n+]1c2ccccc2[n+]([O-])c2c(O)cccc21` [Example 4a, 1-hydroxyphenazine 5,10-dioxide], the IC50 in the data set with Molm13 cells (setting [11]) was determined as 4.5 µM.

`Nc1n[n+]([O-])c2ccccc2[n+]1[O-]` [Tirapazamine, reference compound] gave a LogPeff in data set [1] (5 h, 50 μM) of −5.79.

In data set [1] (setting [6]), `CCCCC(=O)Oc1cccc2c1[n+]([O-])c1cccc(OC(=O)CCCC)c1[n+]2[O-]` [Example 16b, 1,6-bis(pentanoyloxy)phenazine 5,10-dioxide] came in with a LogPeff of −8.66. Besides, the IC50 in the data set with Molm13 cells (setting [11]) is around 40 µM. Besides, the EC50 in data set [2] (Rattus norvegicus) was above 200 µM; in data set [3] (setting [12]), 22 ± 2.8 µM; in data set [3] (setting [13]) it was 36 ± 0.1 µM.

Turning to `[O-][n+]1c2cc3ccccc3cc2[n+]([O-])c2c(O)cccc21` [Example 70, 1-hydroxybenzo[b]phenazine 5,12-dioxide], the LogPeff in data set [1] (setting [6]) was −8.04.

Turning to `CCOC(=O)COc1cccc2c1[n+]([O-])c1cccc(OCC(=O)OCC)c1[n+]2[O-]` [Example 16c, 1,6-bis(2-ethoxy-2-oxoethoxy)phenazine 5,10-dioxide], the IC50 with Molm13 cells (setting [14]) is 3.98 µM; in the data set on Molm13 cells (setting [11]), 4.11 µM. Further, the EC50 is above 20 µM in data set [2] (Rattus norvegicus); 0.79 ± 0.06 µM in data set [3] (setting [12]); 2 ± 0.47 µM in data set [3] (setting [13]); above 20 µM in data set [4] (setting [15]); above 20 µM in data set [4] (setting [16]).

Consider `CN(C)C(=O)Oc1cccc2c1[n+]([O-])c1ccccc1[n+]2[O-]` [Example 8k, 1-((dimethylcarbamoyl)oxy)phenazine 5,10-dioxide], for which the IC50 in the data set with Molm13 cells (setting [5]) is 0.32 µM. In addition, the EC50 in data set [2] is 16 ± 2.6 µM; in data set [3] (setting [7]), 2.1 ± 0.16 µM; in data set [3] (setting [8]) it was 1.3 ± 0.15 µM; in data set [4] (setting [9]), 25 ± 0.6 µM; in data set [4] (setting [10]), 19 ± 1.3 µM.

Regarding `CCN(CC)C(=O)COc1cccc2c1[n+]([O-])c1cc(C)c(C)cc1[n+]2[O-]` [Example 50, 1-(2-(diethylamino)-2-oxoethoxy)-7,8-dimethylphenazine 5,10-dioxide], the Permeability entry in data set [1] is “Intermediate/high”. The same compound yielded a LogPeff in data set [1] (setting [6]) of −5.42. For the same compound, the EC50 was 41 ± 5.7 µM in data set [2] (Rattus norvegicus); 3.4 ± 0.78 µM in data set [3] (setting [12]); 1.8 ± 0.24 µM in data set [3] (setting [13]); 52 ± 1.2 µM in data set [4] (setting [15]); 21 ± 0.3 µM in data set [4] (setting [16]).

Turning to `CC(=O)Oc1cccc2c1[n+]([O-])c1cccc(O)c1[n+]2[O-]` [Example 5d, 1-Acetoxy-6-hydroxyphenazine 5,10-dioxide], the figures for the IC50 with Molm13 cells (setting [14]) and with Molm13 cells (setting [11]) were 5.61 µM and 5.62 µM, respectively.

`CN1CCN(C(=O)Oc2cccc3c2[n+]([O-])c2cc4ccccc4cc2[n+]3[O-])CC1` [Example 71, 1-((4-methylpiperazine-1-carbonyl)oxy)benzo[b]phenazine 5,12-dioxide]: the Permeability result in data set [1] is on record as “Intermediate/high”. For the same compound, the LogPeff in data set [1] (setting [6]) was −5.43. In addition, the EC50 is 2.3 ± 0.05 µM in data set [2]; 1.8 ± 0.1 µM in data set [3] (setting [7]); 2.8 ± 0.18 µM in data set [3] (setting [8]); 7.5 ± 0.38 µM in data set [4] (setting [9]); 2 ± 0.06 µM in data set [4] (read-out: EC50 (μM) NRK 19% O2, 19% O2, 24 hours of incubation).

For `COc1cccc2nc3c(OC)cccc3nc12` [Example 1a, 1,6-dimethoxyphenazine], the IC50 in the data set with Molm13 cells (setting [14]) and in the data set with Molm13 cells (setting [11]) was above 10 µM throughout. In addition, the EC50 in data set [3] (setting [12]) worked out at 84 ± 6 µM; in data set [3] (setting [13]), 72 ± 14 µM.

As for `CCOC(=O)Oc1cccc2c1[n+]([O-])c1cccc(OC(=O)OCC)c1[n+]2[O-]` [Example 16e, 1,6-bis((ethoxycarbonyl)oxy)phenazine 5,10-dioxide], the values for the IC50 with Molm13 cells (setting [14]) and with Molm13 cells (setting [11]) were 3.5 µM and 2.23 µM, respectively. The half-maximal effective concentration (EC50) in data set [2] (Rattus norvegicus) was above 25 µM; in data set [3] (setting [12]), 4 ± 0.33 µM; in data set [3] (setting [13]), 6.1 ± 0.05 µM; in data set [4] (setting [15]) it was above 25 µM; in data set [4] (setting [16]), above 25 µM.

In the case of `O=C(O)COc1cccc2c1[n+]([O-])c1cccc(O)c1[n+]2[O-]` [Example 7, 1-(carboxymethoxy)-6-hydroxyphenazine 5,10-dioxide], in data set [1] (setting [6]), the LogPeff was −7.53. In addition, the EC50 in data set [3] (setting [12]) is 61 ± 4 µM; in data set [3] (setting [13]), 54 ± 7 µM.

With `Oc1cccc2nc3c(O)cccc3nc12` [Example 1b, 1,6-dihydroxyphenazine], in data set [1], the Permeability entry was “Intermediate/high”. In data set [1] (setting [6]), this compound came in with a LogPeff of −5.42. For the same compound, the values for the EC50 in data set [3] (setting [12]) and in data set [3] (setting [13]) were 110 to 140 µM and 100 to 120 µM, respectively.
